Several values for one entry are separate records, joined by “and”; a condition that tells them apart may be missing. Identical values can stand only once.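 Tested at 5 concentrations; 48 h exposure; 96-well plates; endpoints linearly interpolated, else capped at highest concentration. GI50 = concentration required for 50% inhibition of growth. At the TGI there is no net growth.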
Columns and labels:
Assay in all cases: NCI anticancer screen, dose series, 48 h
SF-268 CNS = system: SF-268 CNS
SN12C renal = system: SN12C renal
EKVX NSCLC = system: EKVX NSCLC
HCT-116 colon = system: HCT-116 colon
HOP-92 NSCLC = system: HOP-92 NSCLC
K-562 leukemia = system: K-562 leukemia
U251 CNS = system: U251 CNS
A498 renal = system: A498 renal
COLO 205 colon = system: COLO 205 colon
786-0 renal = system: 786-0 renal

| SMILES | GI50 (SF-268 CNS) | TGI (SF-268 CNS) | GI50 (SN12C renal) | TGI (SN12C renal) | GI50 (EKVX NSCLC) | TGI (EKVX NSCLC) | GI50 (HCT-116 colon) | TGI (HCT-116 colon) | GI50 (HOP-92 NSCLC) | TGI (HOP-92 NSCLC) | GI50 (K-562 leukemia) | TGI (K-562 leukemia) | TGI (U251 CNS) | GI50 (A498 renal) | TGI (A498 renal) | GI50 (COLO 205 colon) | TGI (COLO 205 colon) | GI50 (786-0 renal) | TGI (786-0 renal) | GI50 (U251 CNS) |
| --- | --- | --- | --- | --- | --- | --- | --- | --- | --- | --- | --- | --- | --- | --- | --- | --- | --- | --- | --- | --- |
| CC(=O)OCC1OC(O[C@@H]2C[C@H]3C(C)(C)[C@H](OC(C)=O)CC[C@]3(C)[C@H]3CC[C@@H]4[C@]5(CC[C@@]4(C)[C@@]32C)O[C@@H]([C@H](O)C(C)(C)O)C[C@@H]5C)C(O)C(O)C1O (some centres undefined) | 9.34 µM | 23.7 µM | 11.1 µM | 24 µM | 9.52 µM | 28.5 µM | 3.81 µM | 15.1 µM | 10 µM | 21.6 µM | 4.51 µM | 25.1 µM | 19.1 µM | 11.7 µM | 25.9 µM | 4.11 µM | 14.3 µM | 8.79 µM | 21.9 µM |  |
| CCNC1=CC(=O)c2ncccc2C1=O | 3.13 µM | 17.3 µM | 1.4 µM | 2.78 µM | 4.68 µM | 18.5 µM | 3 µM | 9.7 µM | 10.3 µM | 25.3 µM | 2.84 µM | 12.5 µM | 13.6 µM | 1.24 µM | 2.87 µM | 1.63 µM | 3.3 µM | 9.09 µM | 23.4 µM | 2.49 µM |
| Nc1ccccc1C#Cc1ccccc1C#CCCCCO | 33.9 µM | > 100 µM | 2.8 µM | 9.49 µM | 29.1 µM | 96.7 µM | 12.9 µM | 26.6 µM | 28.1 µM | 80.4 µM | 19.1 µM | 58.3 µM | 47.1 µM | 21.9 µM | 77.8 µM | 23.7 µM | 59.3 µM | 16 µM | 37.7 µM | 22.6 µM |
| COc1cc([N+](=O)[O-])c2ncccc2c1O | 9.79 µM | 67.1 µM | 3.06 µM | > 100 µM | 18.8 µM | 78.1 µM | 4.26 µM | 82.6 µM | 47.1 µM | > 100 µM | 38.2 µM | > 100 µM | > 100 µM | 1.31 µM | 4.25 µM | 1.7 µM | 3.46 µM | 17.9 µM | > 100 µM | 3.2 µM |
| COc1ccc2c(c1)[n+]([O-])c(-c1ccc(Cl)c(Cl)c1)c(N)[n+]2[O-] |  | > 100 µM |  | > 100 µM |  | > 100 µM |  | > 100 µM |  | > 100 µM |  | > 100 µM | > 100 µM |  | > 100 µM |  | 33.6 µM |  | > 100 µM |  |
| COCCOC(=O)CCn1cc(F)c(=O)[nH]c1=O | 102 µg/mL | > 150 µg/mL | 7.8 µg/mL | > 150 µg/mL | 57.8 µg/mL | > 150 µg/mL | 4.54 µg/mL | > 150 µg/mL | 77.6 µg/mL | > 150 µg/mL | 21.3 µg/mL | > 150 µg/mL | > 150 µg/mL | 0.989 µg/mL | > 150 µg/mL | 4.75 µg/mL | > 150 µg/mL | 8.12 µg/mL | > 150 µg/mL | 51 µg/mL |
| N#CCc1nc2c(s1)C(=O)c1ccccc1C2=O |  | 32.2 µM |  | 33.5 µM |  | 49.1 µM |  | 27.6 µM |  | 34.4 µM |  | 39.6 µM | 31.1 µM |  | 59.1 µM |  | 33.4 µM |  | 30.1 µM |  |
| O=C(O)c1c(Cl)c(Cl)c(Cl)c(Cl)c1-c1c2cc(I)c(=O)c(I)c-2oc2c(I)c(O)c(I)cc12 | 41.3 µM and 36.8 µM | 81.2 µM | 75.5 µM and 32.6 µM | 103 µM | 63.5 µM | > 200 µM | 45.4 µM and 37.2 µM | 81.5 µM | 19.3 µM and 29.7 µM | 68 µM and 71.6 µM | 39.2 µM and 46 µM | 116 µM | 83.9 µM | 29.5 µM and 26.1 µM | 64.2 µM | 45.8 µM | 159 µM | 46.5 µM | 123 µM | 26.3 µM and 35.1 µM |
| Fc1cc(Nc2ccc3c(OCCCN4CCOCC4)cccc3n2)ccc1Cl | 3.13 µM | 17 µM | 4.36 µM | 19.3 µM | 2.37 µM | 6.2 µM | 2.76 µM | 7.16 µM | 2.4 µM | 6.26 µM | 1.91 µM | 4.38 µM | 3.75 µM | 2.42 µM | 6.73 µM | 1.82 µM | 3.43 µM | 1.79 µM | 3.53 µM | 1.85 µM |
| NC(=NC1C2CC3CC(C2)CC1C3)Nc1ccc(I)cc1 (centres undefined) | 4.52 µM | 17.8 µM | 3.82 µM | 14.6 µM | 3.43 µM | 14.3 µM | 3.11 µM | 10.4 µM | 1.6 µM | 5.21 µM | 3.29 µM | 15.7 µM | 12.6 µM | 2.47 µM | 6.77 µM | 1 µM | 2.64 µM | 4.03 µM | 15.5 µM | 3.42 µM |
| O=C(O)C1C2CC3CC2CC31 (centres undefined) |  | > 100 µM |  | > 100 µM |  | > 100 µM |  | > 100 µM |  | > 100 µM |  | > 100 µM | > 100 µM |  | > 100 µM |  | > 100 µM |  | > 100 µM |  |
| O=C1CCC(c2ccccc2)(c2ccccc2)CC1 |  | > 100 µM |  | > 100 µM |  | > 100 µM |  | > 100 µM |  | > 100 µM |  | > 100 µM | > 100 µM |  | > 100 µM |  | 89.9 µM |  | > 100 µM |  |
| Cc1ccc(C)c(NC(=O)CCc2n[nH]c(=S)o2)c1 |  | > 100 µM |  | > 100 µM |  | > 100 µM |  | > 100 µM |  | > 100 µM |  | > 100 µM | > 100 µM |  | > 100 µM |  | > 100 µM |  | > 100 µM |  |
| COc1cc(Nc2ncc(-c3ccccc3)o2)cc(OC)c1OC | 4.73 µM | > 25 µM | 6.35 µM | > 25 µM | > 6.86 µM | > 25 µM | 1.45 µM | > 25 µM | 4.27 µM | > 25 µM | 0.401 µM | > 25 µM | > 25 µM | 0.607 µM | > 7.47 µM | 2.15 µM | > 25 µM | 5.13 µM | > 25 µM | 4.35 µM |

From PubChem BioAssay (NCI)
